In brackets after ≈: the same amount, converted by molar mass.
Assays:
Format in all cases: cell-based
[1] = system: Staphylococcus epidermidis IFO 12993; test: in vitro antibacterial activity, agar plate dilution method (MIC); settings: IFO12993, read-out: Antimicrobial spectrum MIC
Protocol: (§1) The in vitro antibacterial activities of the compounds provided by the present invention were tested by a standard method of Chemotherapy Society of Japan, i.e. an agar plate dilution method disclosed in CHEMOTHERAPY Vol. 29, pages 76–79, 1981, and the activities of them on anaerobic bacteria were tested by a method disclosed in CHEMOTHERAPY Vol. 27, 559–590, 1979. The results were shown in terms of the minimum inhibition concentration (MIC, μg/ml) for the growth of the bacteria.

[2] = system: Streptococcus pneumoniae IID 553; test: as above; settings: IID553, read-out: Antimicrobial spectrum MIC
Protocol: as §1

[3] = system: Micrococcus luteus KI 3122; test: as above; settings: KI3122, read-out: Antimicrobial spectrum MIC
Protocol: as §1

[4] = system: Bacillus subtilis JCM 2499; test: as above; settings: JCM2499, read-out: Antimicrobial spectrum MIC
Protocol: as §1

[5] = system: Enterococcus faecalis CSJ 1212; test: as above; settings: CSJ1212, read-out: Antimicrobial spectrum MIC
Protocol: as §1

[6] = system: Pseudomonas aeruginosa CSJ 1853; test: as above; settings: CSJ1853, read-out: Antimicrobial spectrum MIC
Protocol: as §1

[7] = system: Escherichia coli IFO 12734; test: as above; settings: IFO12734, read-out: Antimicrobial spectrum MIC
Protocol: as §1

[8] = system: Staphylococcus aureus JCM 2874; test: as above; settings: JCM2874, read-out: Antimicrobial spectrum MIC
Protocol: as §1

[9] = system: Klebsiella pneumoniae IID 865; test: as above; settings: IID865, read-out: Antimicrobial spectrum MIC
Protocol: as §1

[10] = system: Haemophilus influenzae IID 984; test: as above; settings: IID984, read-out: Antimicrobial spectrum MIC
Protocol: as §1

[11] = system: Enterococcus faecalis RIMD 3116001; test: as above; settings: RIMD3116001, read-out: Antimicrobial spectrum MIC
Protocol: as §1

[12] = system: Branhamella catarrhalis IID 5233; test: as above; settings: Moraxella catarrhalis, IID5233, read-out: Antimicrobial spectrum MIC
Protocol: as §1

[13] = system: Staphylococcus aureus IFO 13276; test: as above; settings: IFO13276, read-out: Antimicrobial spectrum MIC
Protocol: as §1

[14] = system: Staphylococcus aureus IID 803(Smith); test: as above; settings: IID803, read-out: Antimicrobial spectrum MIC
Protocol: as §1

[15] = system: Staphylococcus aureus Clin-211(MRSA); test: as above; settings: read-out: Antimicrobial spectrum MIC
Protocol: as §1

[16] = system: Bacteroides fragilis GAI 0675; test: in vitro antibacterial activity on anaerobic bacteria (MIC); settings: GAI0675; Bacteroides fragilis GAI 0675, anaerobic; read-out: Antimicrobial spectrum MIC
Protocol: as §1

[17] = system: Bacteroides thetaiotaomicron ATCC 29741; test: as above; settings: ATCC29741; Bacteroides thetaiotaomicron ATCC 29741, anaerobic; read-out: Antimicrobial spectrum MIC
Protocol: as §1

[18] = system: Propionibacterium acnes JCM 6425; test: as above; settings: Cutibacterium acnes, JCM6425; Propionibacterium acnes JCM 6425, anaerobic; read-out: Antimicrobial spectrum MIC
Protocol: as §1

MIC [1] [µg/mL]	MIC [2] [µg/mL]	MIC [3] [µg/mL]	MIC [4] [µg/mL]	MIC [5] [µg/mL]	MIC [6] [µg/mL]	MIC [7] [µg/mL]	MIC [8] [µg/mL]	MIC [9] [µg/mL]	MIC [10] [µg/mL]	MIC [11] [µg/mL]	MIC [12] [µg/mL]	MIC [13] [µg/mL]	MIC [14] [µg/mL]	MIC [15] [µg/mL]	MIC [16] [µg/mL]	MIC [17] [µg/mL]	MIC [18] [µg/mL]	SMILES
0.016 (≈ 0.0457 µM)	0.5 (≈ 1.43 µM)	0.25 (≈ 0.714 µM)	≤ 0.004	0.125 (≈ 0.357 µM)	1 (≈ 2.85 µM)	0.25 (≈ 0.714 µM)	0.016 (≈ 0.0457 µM)	0.016 (≈ 0.0457 µM)	0.063 (≈ 0.18 µM)	0.25 (≈ 0.714 µM)	0.031 (≈ 0.0885 µM)	0.008 (≈ 0.0228 µM)	0.008 (≈ 0.0228 µM)	0.125 (≈ 0.357 µM)	0.063 (≈ 0.18 µM)	0.25 (≈ 0.714 µM)	0.008 (≈ 0.0228 µM)	COc1ccc(-c2ccn3c(=O)c(C(=O)O)cc(C4CC4)c3c2C)cn1 [Example 32, 1-Cyclopropyl-8-(6-methoxypyridin-3-yl)-9-methyl-4-oxo-4H-quinolizine-3-carboxylic acid]
0.016 (≈ 0.0465 µM)	0.5 (≈ 1.45 µM)	0.125 (≈ 0.363 µM)	≤ 0.004	0.25 (≈ 0.726 µM)	0.5 (≈ 1.45 µM)	0.25 (≈ 0.726 µM)	0.016 (≈ 0.0465 µM)	0.031 (≈ 0.09 µM)	0.063 (≈ 0.183 µM)	0.25 (≈ 0.726 µM)	0.031 (≈ 0.09 µM)	0.016 (≈ 0.0465 µM)	0.008 (≈ 0.0232 µM)	0.125 (≈ 0.363 µM)	0.125 (≈ 0.363 µM)	0.5 (≈ 1.45 µM)	0.063 (≈ 0.183 µM)	Cc1c(-c2ccc(C#N)cc2)ccn2c(=O)c(C(=O)O)cc(C3CC3)c12 [Example 36, 8-(4-Cyanophenyl)-1-cyclopropyl-9-methyl-4-oxo-4H-quinolizine-3-carboxylic acid]
0.016 (≈ 0.0425 µM)	0.125 (≈ 0.332 µM)	0.125 (≈ 0.332 µM)	≤ 0.004	0.125 (≈ 0.332 µM)	2 (≈ 5.31 µM)	0.125 (≈ 0.332 µM)	≤ 0.004	0.031 (≈ 0.0824 µM)	0.125 (≈ 0.332 µM)	0.125 (≈ 0.332 µM)	0.016 (≈ 0.0425 µM)	0.008 (≈ 0.0213 µM)	≤ 0.004	0.063 (≈ 0.167 µM)	0.063 (≈ 0.167 µM)	0.25 (≈ 0.664 µM)	–	CC(=NO)c1ccc(-c2ccn3c(=O)c(C(=O)O)cc(C4CC4)c3c2C)cc1 [Example 38, 1-Cyclopropyl-8-[4-(1-hydroxyiminoethyl)phenyl]-9-methyl-4-oxo-4H-quinolizine-3-carboxylic acid]
0.016 (≈ 0.0454 µM)	0.25 (≈ 0.709 µM)	0.125 (≈ 0.355 µM)	–	0.125 (≈ 0.355 µM)	0.25 (≈ 0.709 µM)	0.063 (≈ 0.179 µM)	≤ 0.004	0.031 (≈ 0.088 µM)	0.031 (≈ 0.088 µM)	0.25 (≈ 0.709 µM)	0.031 (≈ 0.088 µM)	0.016 (≈ 0.0454 µM)	≤ 0.004	0.063 (≈ 0.179 µM)	0.031 (≈ 0.088 µM)	0.125 (≈ 0.355 µM)	0.031 (≈ 0.088 µM)	Cc1c(-c2ccc(N)c(F)c2)ccn2c(=O)c(C(=O)O)cc(C3CC3)c12 [Example 97, 8-(4-amino-3-fluorophenyl)-1-cyclopropyl-9-methyl-4-oxo-4H-quinolizine-3-carboxylic acid]
0.031 (≈ 0.0774 µM)	0.125 (≈ 0.312 µM)	0.25 (≈ 0.624 µM)	–	0.063 (≈ 0.157 µM)	0.25 (≈ 0.624 µM)	0.063 (≈ 0.157 µM)	0.031 (≈ 0.0774 µM)	0.008 (≈ 0.02 µM)	0.008 (≈ 0.02 µM)	0.125 (≈ 0.312 µM)	0.031 (≈ 0.0774 µM)	0.016 (≈ 0.04 µM)	0.016 (≈ 0.04 µM)	0.25 (≈ 0.624 µM)	0.25 (≈ 0.624 µM)	0.5 (≈ 1.25 µM)	0.125 (≈ 0.312 µM)	CCOC(=O)c1cc(C2CC2)c2c(C)c(-c3cc(F)c(CN)s3)ccn2c1=O [Example 111, Ethyl 8-(5-aminomethyl-4-fluorothiophen-2-yl)-1-cyclopropyl-9-methyl-4-oxo-4H-quinolizine-3-carboxylate]
–	0.5 (≈ 1.48 µM)	0.25 (≈ 0.739 µM)	0.016 (≈ 0.0473 µM)	0.5 (≈ 1.48 µM)	1 (≈ 2.96 µM)	0.063 (≈ 0.186 µM)	0.063 (≈ 0.186 µM)	0.008 (≈ 0.0236 µM)	0.031 (≈ 0.0916 µM)	0.5 (≈ 1.48 µM)	0.125 (≈ 0.369 µM)	0.031 (≈ 0.0916 µM)	–	–	1 (≈ 2.96 µM)	2 (≈ 5.91 µM)	–	Cc1c(-c2ccc(CN)o2)ccn2c(=O)c(C(=O)O)cc(C3CC3)c12 [Example 113, 8-(5-Aminomethylfuran-2-yl)-1-cyclopropyl-9-methyl-4-oxo-4H-quinolizine-3-carboxylic acid]
